Test: Human HepG2 cell viability assay in 384 well format
Assay type: toxicity, cell-based
Parameters: dose 125 nL, time 70.5 hour; concentration not given beside the values
Settings: HepG2 cells, read-out: Inhibition

Point of comparison: `CC(=O)N1CCOCC2(CN(Cc3ccccn3)CCO2)C1` (stereo not drawn), cytotoxicity at 70.5 h -9.92%. Against it:
- O=C(NC1CC1)N1CCCC2(CCNC2=O)C1 (stereo not drawn) — higher, -3.68%
- O=C1CCC2(CCCN(C(=O)Cc3cccs3)C2)N1 (stereo not drawn) — higher, -5%
- NC1CCc2c(ccc(=O)n2Cc2ccncc2)C1 (stereo not drawn) — higher, 2.44%
- CC(C)N1CCc2[nH]nc(C(=O)N3CCCC3C)c2C1 (stereo not drawn) — higher, -4.03%
- CCOCC(=O)N1C[C@H]2CN(CC3CC3)C(=O)[C@H]2C1 — higher, -5.22%
- Cn1ccc(C(=O)N2CCCCC23CC(=O)N(Cc2ccccc2)C3)n1 (stereo not drawn) — higher, 1.38%
- Cc1nc(CN2CCC3(CCN(Cc4cnn(C)c4)C3)C2=O)cs1 (stereo not drawn) — lower, -13.8%
- CCO[C@@H]1CC[C@H]2[C@H]1OCCN2Cc1ccc(F)cc1 — lower, -16.2%
- O=C(c1ccc[nH]1)N1Cc2nccn2CC(Cn2ncccc2=O)C1 (stereo not drawn) — higher, -6.79%
- CC(=O)N1CCC2(CC1)CC(NC(=O)N(C)C)c1cc(C)ccc12 (stereo not drawn) — higher, -5.6%
- C1CC(CN2CC[C@@H]3O[C@@H](c4nnc(C5CC5)o4)C[C@H]3C2)CCO1 — higher, -9.09%
- O=C(NCC1CC1)c1cc2c(s1)CCN2C(=O)c1cccnc1 — higher, -8.04%
- CO[C@@H]1CC[C@H]2[C@H]1OCCN2S(=O)(=O)C1CC1 — higher, -9.16%
- Cn1cc(C2CC(=O)NC23CCN(C(=O)NC2CC2)CC3)cn1 (stereo not drawn) — higher, -6.56%
- CN(C)C(=O)N1CCC2(C1)CN(c1cccnc1)C(=O)CN2C (stereo not drawn) — higher, -7.38%
- O=C(NCC1CC1)[C@@H]1C[C@@H]2CCN(Cc3ccoc3)C[C@@H]2O1 — higher, 2.93%
- O=C(NCC1CCCO1)c1nc2c(s1)CCCN2c1ncccn1 (stereo not drawn) — higher, 24.3%
- O=C(c1cnccn1)N1CCN(Cc2cccnc2)c2ncccc2C1 — higher, -8.24%
- CN(Cc1cccnc1)[C@@H]1CN(Cc2ccccn2)[C@@H]2CCCO[C@H]12 — higher, -2.2%
- Cc1cccc(CN2C(=O)CCC23CCN(Cc2nccn2C)CC3)n1 — higher, -4.21%
- Cc1ccc(CN2CC[C@H]3OCC[C@@]3(C(=O)N3CCCO3)C2)s1 — higher, -5.95%
- CC1c2ncc(Cn3cncn3)n2CCN1C(=O)N(C)C (stereo not drawn) — higher, -7.73%
- CC(C)Nc1nc(N2CCCC2)nc2c1CN(c1ncc(F)cn1)CC2 — higher, -7.8%
- O=C1CC2(CCN(c3nncs3)C2)CN1c1ccccc1 (stereo not drawn) — higher, -1.13%
- Cn1cc(CN2CC[C@@H]3O[C@H](C(=O)N4CCOCC4)C[C@@H]32)cn1 — higher, -5.63%
- CC(C)CC(=O)N1CC[C@@H]2[C@H](CC1)N(S(C)(=O)=O)CCS2(=O)=O — higher, -4.28%
- O=C(N[C@@H]1CN(Cc2ccc3c(c2)OCO3)[C@@H]2CCCO[C@@H]21)C1CC1 — higher, 8.84%
- O=C(c1cnccn1)N1CCN(Cc2ccncc2)c2ncccc2C1 — higher, -5.23%
- Cc1oncc1C(=O)N1CCC2(C1)CN(c1cccnc1)C(=O)CN2C (stereo not drawn) — higher, -0.201%
- O=C(N[C@@H]1CN(Cc2ccsc2)[C@@H]2CCCO[C@@H]21)C1CC1 — higher, 9.03%
- COCCNC(=O)c1cc2c(s1)CCN2C(=O)c1ccccc1 — higher, 6.46%
- O=C(NCc1ccco1)[C@H]1C[C@H]2OCC[C@H]2N(C(=O)c2ccco2)C1 — higher, -8.55%
- COC(=O)CCC(=O)N1CCC2(CN(Cc3cccc(F)c3)C2)C1 — higher, 0.281%
- CC(C)Nc1nc(N2CCCC2)nc2c1CN(C(C)C)CC2 — higher, 0.846%
- CC(C)NC(=O)C1CN(C(N)=O)Cc2ccnn2C1 (stereo not drawn) — lower, -17.9%
- CCOC(=O)N1CCCC2(CCCNC2)C1 (stereo not drawn) — higher, -1.34%
- CCCC(=O)N1CCc2c(CNS(C)(=O)=O)cncc2C1 — higher, -8.58%
- CS(=O)(=O)NCc1cncc2c1CCN(C(=O)c1cccnc1)C2 — higher, -5.3%
- CC(C)N1CCc2c(CN(C)Cc3ccco3)cncc2C1 — higher, 5.22%
- Cc1cccc(CN2CCc3[nH]nc(C(=O)N(C)C)c3C2)n1 — higher, 33.4%
- O=C1CCC2(CCCN(C(=O)Cc3cccnc3)C2)N1 (stereo not drawn) — higher, -6.68%
- Cc1ccc(CN2C(=O)CC[C@]23CC[C@@H](NC2CCOC2)CC3)cc1 (stereo partly drawn) — higher, -1.41%
- COc1ccc(CN[C@H]2CC[C@@]3(CCC(=O)N3)CC2)cc1 — higher, -6.23%
- CNC(=O)C1CCC2(CCNCC2)C1 (stereo not drawn) — higher, -3.71%
- CO[C@@H]1CC[C@H]2[C@H]1OCCN2Cc1ccc(F)c(F)c1 — higher, -9.19%
- O=C(N1CCCC1)N1Cc2nccn2CC(COc2cccnc2)C1 (stereo not drawn) — higher, -9.49%
- CO[C@@H]1CC[C@H]2[C@H]1OCCN2Cc1ccc(F)cc1 — lower, -9.94%
- Cc1nc(CN2CCCC3(CCN(c4cnn(C)c4)C3=O)C2)cs1 (stereo not drawn) — lower, -11.6%
- Cn1ccc(C(=O)N2C[C@@H]3OCCN(c4ncccn4)[C@@H]3C2)n1 — lower, -12.1%
- COc1ccc(CN2CC[C@@H]3[C@H]2CCC(=O)N3c2cnn(C)c2)cc1 — higher, 5.08%
- O=c1cccnn1CC1CN(CC2CCCC2)Cc2nccn2C1 (stereo not drawn) — higher, -5.89%
- Cc1ccc2c(c1)C(NC(=O)N(C)C)CC21CCN(C(C)C)CC1 (stereo not drawn) — higher, -5.2%
- c1cncc(N2CCC3(CCCN(c4ccncc4)C3)CC2)c1 — higher, -6.14%
- COCCNC(=O)[C@H]1C[C@@H]2CCN(c3ccncn3)C[C@H]2O1 — higher, 1.69%
- Cc1ccc(CN2CC[C@H]3OCC[C@@]3(C(=O)N3CCCO3)C2)o1 — higher, 2.99%
- O=C(c1cnccn1)N1CCCC2(CCN(Cc3ccsc3)C2)C1 (stereo not drawn) — higher, -5.33%
- O=C(c1cnccn1)N1CC2(CCN(Cc3ccsc3)C2)C1 — higher, -4.05%
- Cc1ccsc1CN1CC[C@H]2OCC[C@@]2(C(=O)N2CCCO2)C1 — higher, 22.9%
- O=C(N1CCCO1)[C@@]12CCO[C@@H]1CCN(Cc1cccs1)C2 — higher, 34.4%
- CCOCC1CN(C(=O)c2cnoc2C)Cc2cnn(C)c21 (stereo not drawn) — lower, -12.5%
- CC(=O)NCC(=O)N1CCOC2(CCCN(c3cccnc3)C2)C1 (stereo not drawn) — higher, 14.8%
- Cc1nc(N(C)C)nc2c1COCC21CCN(CC2CC2)C1 (stereo not drawn) — higher, 5.56%
- O=C([C@@H]1C[C@H]2[C@H](CCN2Cc2nccs2)O1)N1CCOCC1 — higher, -8.03%
- Cc1ccc(CN2CCC3(CC2)C(=O)N(C)c2ccccc23)s1 — higher, 0.079%
- CC1=N[C@@]2(CC[C@@H]3CN(Cc4ccccc4F)C[C@@H]32)C(=O)N1CC1CC1 — higher, -0.339%
- CCC1=N[C@@]2(CC[C@@H]3CN(Cc4ccccc4F)C[C@@H]32)C(=O)N1CC — higher, -6.42%
- O=C(NCc1ccco1)[C@@H]1CCO[C@@H]2CCN(c3ccncn3)C[C@H]21 — higher, -2.41%
- O=C(NCC1CCOCC1)[C@@H]1C[C@@H]2CCN(Cc3ccco3)C[C@H]2O1 — higher, -5.42%
- O=C(N1CCCO1)[C@@]12CCO[C@@H]1CCN(Cc1ccccc1)C2 — higher, -5%
- CN(C)C(=O)N[C@@H]1CN(Cc2ccc3c(c2)OCO3)[C@@H]2CCCO[C@@H]21 — higher, 3.25%
- CCS(=O)(=O)N1CCC[C@]2(C(=O)N(C)C)CN(c3ncccn3)C[C@@H]2C1 — higher, 11.9%
- O=C(c1cnccn1)N1CCOC2(CCN(Cc3ccsc3)CC2)C1 — higher, 4.24%
- Cn1cc(C2CC(=O)NC23CCN(CC2CC2)CC3)cn1 (stereo not drawn) — higher, 9.8%
- Cc1ccoc1C(=O)N1CCO[C@H]2[C@H](OCCN(C)C)CC[C@@H]21 — lower, -12.4%
- Cc1ccc(CN2CCc3ncnc(-c4ccc(F)cc4)c3CC2)o1 — lower, -14.6%
- O=C(c1ccnnc1)N1CCN2C[C@H](Oc3cccc(F)c3)C[C@H]2C1 — higher, -5.78%
- c1nc(COCC2CC2)c2n1CCCN(CC1CC1)C2 — lower, -18.3%
- Cc1ccc(CN2CCc3[nH]nc(C(=O)N(C)C)c3C2)s1 — higher, 3.17%
- Cc1cc(C(=O)N2CCC3(C2)CN(c2cccnc2)C(=O)CN3C)[nH]n1 (stereo not drawn) — lower, -10.2%
- Cc1cccc(CN2CCc3cc(C(=O)O)c(N(C)C)nc3CC2)n1 — higher, -5.66%
- CC(C)Nc1nc2c(cc1C(=O)O)CCN(Cc1ccsc1)CC2 — higher, -6.73%
- O=C(NCc1cccnc1)[C@H]1C[C@@H]2CCN(c3ccncn3)C[C@H]2O1 — higher, -5.01%
- CCCN1CC[C@@H]2OC[C@H](C(=O)Nc3cccnc3)C[C@@H]2C1 — higher, 2.64%
- CN(Cc1cccnc1)[C@@H]1CN(C(=O)CC2CC2)[C@@H]2CCCO[C@H]12 — higher, 0.0586%
- COCCN1CCC2(CCC(=O)N2Cc2csc(C)n2)CC1 — higher, -7.09%
- O=C(N1CCCC1)N1CCN(Cc2cccnc2)c2ncccc2C1 — lower, -10.8%
- O=C(CC1CC1)N1CCN(Cc2cccnc2)c2ncccc2C1 — higher, -9.33%
- Cc1nc(CN2C(=O)CCC23CCN(Cc2ccccn2)CC3)cs1 — higher, -6.85%
- c1ccc(CN2CC[C@H]3CO[C@H](CNc4ncccn4)[C@H]3C2)cc1 — higher, -5.27%
- Cn1ccnc1CN1CCC2(CCC(=O)N2CCN2CCCC2)CC1 — higher, -8.64%
- CN(C)CCOCc1nnc2n1CCN(Cc1ccco1)CC2 — higher, -4.62%
- CC(C)COCC1CN(Cc2ccc3c(c2)OCO3)Cc2ncn(C)c21 (stereo not drawn) — higher, 45.7%
- Cc1ccc(CN2CCC3(CC2)CC(c2cccnc2)CO3)s1 (stereo not drawn) — higher, 2.33%
- CCCC(=O)N1CC[C@@H]2[C@H](CC1)N(Cc1cccnc1)CCS2(=O)=O — higher, 4.18%
- O=C(Nc1cccnc1)[C@H]1C[C@@H]2CCN(c3nncs3)C[C@H]2O1 — higher, -1.35%
- O=C(Nc1cccnc1)[C@H]1CO[C@H]2CCN(c3ncc(F)cn3)C[C@H]2C1 — higher, 4.85%
- CN(Cc1cncnc1)[C@H]1CN(CC2CC2)[C@@H]2CCCO[C@@H]21 — higher, -5.03%
- c1cnc(NC[C@H]2OC[C@@H]3CCN(Cc4cccnc4)C[C@@H]32)nc1 — lower, -12.6%
- c1cnc(NC[C@H]2OC[C@@H]3CCN(Cc4nccs4)C[C@@H]32)nc1 — higher, 21.4%
- c1ccc(CN2CC[C@@H]3[C@@H](CO[C@@H]3CNc3ncccn3)C2)nc1 — higher, -7.29%
- CC(C)N(C)Cc1nnc2n1CCN(Cc1ccncc1)CC2 — higher, -3.24%
- Cn1cnc2c1C(COCc1ccccc1)N(Cc1ccncc1)CC2 (stereo not drawn) — higher, -3.01%
